From PubChem BioAssay (NCI)
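Compound exposure: 48 hours, 5 concentrations, 96-well plates. Definition used: TGI = concentration required for complete inhibition of growth.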

Tests used:
Assay in all cases: NCI anticancer screen, dose series, 48 h
[1] = tested on: SF-268 CNS
[2] = tested on: NCI/ADR-RES ovarian
[3] = tested on: HCT-15 colon
[4] = tested on: CCRF-CEM leukemia
[5] = tested on: TK-10 renal
[6] = tested on: LOX IMVI melanoma
[7] = tested on: BT-549 breast
[8] = tested on: KM12 colon
[9] = tested on: MCF7 breast

Row | Structure (SMILES) | TGI [1] | TGI [2] | TGI [3] | TGI [4] | TGI [5] | TGI [6] | TGI [7] | TGI [8] | TGI [9]
1 | CN(CCSCCN(C)C(=O)OC(C)(C)C)C(=O)OC(C)(C)C | > 100 µM | > 100 µM | > 100 µM | > 100 µM | > 100 µM | > 100 µM | > 100 µM | > 100 µM | > 100 µM
2 | CN1CCc2c([nH]c3ccccc23)C1 | > 100 µM | > 100 µM | > 100 µM | > 100 µM | > 100 µM | > 100 µM | > 100 µM | > 100 µM | > 100 µM
3 | O=c1oc2ccc3ccccc3c2cc1-c1nc2ccccc2s1 | > 100 µM | > 100 µM | > 100 µM | > 100 µM | > 100 µM | > 100 µM | > 100 µM | > 100 µM | > 24.4 µM
4 | CN=C(n1ccnc1)n1ccnc1 | > 100 µM | > 100 µM | > 100 µM | > 100 µM | > 100 µM | > 100 µM | > 100 µM | > 100 µM | > 100 µM
5 | Cc1ccc(/C=N/Nc2cc(C)c3cccc(C)c3n2)s1 | 64.2 µM | 22.5 µM | 17.4 µM | > 100 µM | > 100 µM | 4.3 µM | 20.8 µM | 23.7 µM | 18 µM
6 | COc1cc(OC)cc(Oc2nc3ccccc3nc2C(F)(F)F)c1 | > 100 µM | > 100 µM | > 100 µM | > 100 µM | > 100 µM | > 100 µM | > 100 µM | > 100 µM | > 100 µM
7 | CCOC(=O)CCC(NC(=O)Cc1ccc(Nc2nc3cc(F)c(F)cc3nc2C(=O)OCC)cc1)C(=O)OCC (stereo not given) | > 100 µM | > 100 µM | > 100 µM | 46.9 µM | > 100 µM | > 100 µM | > 100 µM | > 100 µM | > 100 µM
8 | CC1(C)[C@@H](Cn2ccc(=O)[nH]c2=O)CC[C@@]1(C)CO | > 100 µM | > 100 µM | > 100 µM | > 100 µM | > 100 µM | > 100 µM |  | > 100 µM | 
9 | CC(=O)OC(OC(C)=O)c1ccc2ccc3cccc4ccc1c2c34 | 91.7 µM | > 100 µM | > 100 µM | > 100 µM | 21.4 µM | 36 µM | 53.6 µM | > 100 µM | 79.1 µM
10 | Fc1ccc2c(c1)nc1n2C(c2c(Cl)cccc2Cl)SC1 (stereo not given) | 29.6 µM | 27.7 µM | 24.4 µM |  | 31.6 µM | 28.2 µM | 30.5 µM | 25.8 µM | 32.2 µM
11 | CO[C@@]12C[C@@H](C)C3=CCC(C)=C3CC1=C(C)C(=O)O2 | > 100 µM | > 100 µM | > 100 µM | > 100 µM | > 100 µM | > 100 µM | > 100 µM | > 100 µM | 
12 | CC(=O)Nc1sc(Br)cc1S(=O)(=O)c1ccc(Cl)cc1 | > 100 µM | 52.3 µM |  | > 100 µM | > 100 µM |  | 74.8 µM | 45.4 µM | 47.3 µM
13 | CC(=O)Nc1ccc(N=Nc2c(O)c(S(=O)(=O)O)cc3cc(S(=O)(=O)O)ccc23)cc1 | > 100 µM | > 100 µM | > 100 µM |  | > 100 µM |  | > 100 µM | > 100 µM | 
14 | CCCCCCNc1n[nH]c(=O)c2c1nnn2Cc1ccccc1 |  | > 100 µM | > 100 µM | > 100 µM | > 100 µM | > 100 µM | > 100 µM | > 100 µM | > 100 µM
15 | COc1cccc(C(=O)Oc2ccc(OS(=O)(=O)c3ccc(C)cc3)cc2)c1C#N | > 100 µM | > 100 µM | > 100 µM | > 100 µM | > 100 µM | > 100 µM |  | > 100 µM | > 100 µM
16 | O=C(N/N=C(\c1ccccc1)c1ccccn1)NC1CCCCC1 | > 100 µM |  | > 100 µM | > 100 µM | > 100 µM | 51.7 µM | > 100 µM | > 100 µM | 
17 | COC[C@@H](N=CC(C)(C)C)C(C)C | > 100 µM | > 100 µM | > 100 µM | > 100 µM | > 100 µM | > 100 µM |  | > 100 µM | > 100 µM
18 | COc1cc(Nc2nc3ccccc3nc2C(=O)O)cc(OC)c1OC | > 100 µM | > 100 µM | > 100 µM | > 100 µM | 78.6 µM | > 100 µM | > 100 µM | > 100 µM | 
19 | CCN(CC)Cc1ccc(C(=S)Nc2ccc(Cl)cc2)s1 | 30 µM | 25 µM | 23 µM | 34.1 µM |  | 16.2 µM | 19.7 µM | 26.6 µM | 25.5 µM
20 | CCN(CC)CCNc1ccc2nnn3c4ccc(OCCN(CC)CC)cc4c(=O)c1c23 | > 100 µM | > 100 µM | > 100 µM | 49 µM | > 100 µM |  | > 100 µM | 84.5 µM | > 100 µM
21 | c1ccc(N=C(N2CCCC2)N(CCN2CCCC2)c2ccccc2)cc1 |  | > 100 µM | > 100 µM | > 100 µM | > 100 µM | > 100 µM | 84.5 µM | 41.7 µM | > 100 µM
22 | O=C1c2ccccc2C(=O)c2c(NCC(O)CO)ccc(NCC(O)CO)c21 (stereo not given) | > 100 µM | > 100 µM | > 100 µM | > 100 µM | > 100 µM | > 100 µM | > 100 µM |  | > 100 µM
23 | O=C(/C=C/c1ccccc1)Oc1cccc(O)c1 | 62.6 µM | > 100 µM | 34.7 µM |  | > 100 µM | > 100 µM | > 100 µM | 46.3 µM | > 100 µM
24 | COc1cccc(CCNC(=O)Cc2ccccc2CCO)c1 | > 100 µM | > 100 µM | > 100 µM | > 100 µM | > 100 µM |  | > 100 µM | > 100 µM | > 100 µM
